Data published in patent publication US20090203753A1, “7-(2-amino-1-hydroxy-ethyl)-4-hydroxybenzothiazol-2(3H)-one-derivatives as beta2 adrenoreceptor agonists” (AstraZeneca AB, priority 2005, published 2009).

Legend:
[1] = biological target: T1, recombinant human Dopamine Subtype D2s receptors (Homo sapiens, UniProt P14416); assay: Dopamine D2 selectivity assay, [3H]-spiperone binding to membranes; settings: read-out: D2 bind pIC50 (converted)
T1 construct: purchased Perkin Elmer
Description: Membranes containing recombinant human Dopamine Subtype D2s receptors were obtained from Perkin Elmer. These were diluted in Assay Buffer (50 mM HEPES, […], 120 mM NaCl, 0.1% gelatin, pH 7.4) to provide a final concentration of membranes that gave a clear window between maximum and minimum specific binding.
(§1) Assays were performed in U-bottomed 96-well polypropylene plates. 30 μL [^3H]-spiperone (0.16 nM final concentration) and 30 μL of test compound (10× final concentration) were added to each test well. For each assay plate 8 replicates were obtained for [^3H]-spiperone binding in the presence of 30 μL vehicle (10% (v/v) DMSO in Assay Buffer; defining maximum binding) or 30 μL Haloperidol (10 μM final concentration; defining non-specific binding (NSB)). Membranes were then added to achieve a final volume of 300 μL. The plates were incubated for 2 hours at room temperature and then filtered onto PEI coated GF/B filter plates, pre-soaked for 1 hour in Assay Buffer, using a 96-well plate Tomtec cell harvester. Five washes with 250 μL wash buffer (50 mM HEPES, 1 mM EDTA, 120 mM NaCl, pH 7.4) were performed at 4° C. to remove unbound radioactivity. The plates were dried then sealed from underneath using Packard plate sealers and MicroScint-O (50 μL) was added to each well. The plates were sealed (TopSeal A) and filter-bound radioactivity was measured with a scintillation counter (TopCount, Packard BioScience) using a 3-minute counting protocol.
(§2) Total specific binding (B0) was determined by subtracting the mean NSB from the mean maximum binding. NSB values were also subtracted from values from all other wells.

[2] = biological target: T2, recombinant human α1D receptor (Homo sapiens, UniProt P25100); assay: Adrenergic α1D selectivity assay, [3H]-prazosin binding to HEK293 membranes; settings: read-out: α1 bind pIC50 (converted)
T2 construct: expressed in transfected cells; host or cells: HEK293
T2 sequence (P25100 1-572): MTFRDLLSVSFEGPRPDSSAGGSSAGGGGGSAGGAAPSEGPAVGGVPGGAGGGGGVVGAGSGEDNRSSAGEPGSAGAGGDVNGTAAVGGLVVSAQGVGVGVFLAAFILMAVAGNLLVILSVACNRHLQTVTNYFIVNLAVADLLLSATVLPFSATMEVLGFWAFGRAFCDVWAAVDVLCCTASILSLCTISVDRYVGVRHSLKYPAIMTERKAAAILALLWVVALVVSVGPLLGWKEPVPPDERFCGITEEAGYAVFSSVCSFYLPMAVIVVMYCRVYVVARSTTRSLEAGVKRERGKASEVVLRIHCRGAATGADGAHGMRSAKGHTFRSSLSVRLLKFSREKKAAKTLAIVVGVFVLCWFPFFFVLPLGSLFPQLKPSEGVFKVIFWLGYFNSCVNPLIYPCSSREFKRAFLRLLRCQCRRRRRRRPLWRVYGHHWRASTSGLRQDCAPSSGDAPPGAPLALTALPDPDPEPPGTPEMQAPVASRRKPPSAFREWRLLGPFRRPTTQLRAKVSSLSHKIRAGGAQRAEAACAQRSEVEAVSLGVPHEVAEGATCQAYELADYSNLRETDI
Description: Membranes were prepared from human embryonic kidney 293 (HEK293) cells expressing recombinant human α1D receptor. These were diluted in Assay Buffer (50 mM HEPES, 1 mM EDTA, 0.1% gelatin, pH 7.4) to provide a final concentration of membranes that gave a clear window between maximum and minimum specific binding.
as §1, with “10” for “30”, “[^3H]-prazosin (0.3” for “[^3H]-spiperone (0.16”, “[^3H]-prazosin” for “[^3H]-spiperone”, “BMY7378” for “Haloperidol”, “100” for “300”, “EDTA,” for “EDTA, 120 mM NaCl,”
as §2

T1 sequence (P14416 1-414 isoform P14416-2): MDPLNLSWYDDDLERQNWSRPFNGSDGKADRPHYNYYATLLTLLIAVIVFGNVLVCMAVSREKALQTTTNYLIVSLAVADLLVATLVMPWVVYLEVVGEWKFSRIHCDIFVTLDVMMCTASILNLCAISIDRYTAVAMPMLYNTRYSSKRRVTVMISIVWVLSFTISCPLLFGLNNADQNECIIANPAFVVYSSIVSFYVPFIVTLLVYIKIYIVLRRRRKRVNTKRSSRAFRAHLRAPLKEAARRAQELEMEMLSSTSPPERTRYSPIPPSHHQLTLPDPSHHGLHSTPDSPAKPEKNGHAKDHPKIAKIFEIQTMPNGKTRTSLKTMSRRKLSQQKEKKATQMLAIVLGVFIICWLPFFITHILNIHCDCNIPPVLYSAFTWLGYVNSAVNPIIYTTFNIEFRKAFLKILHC

- IC50 [1]: 5.01 µM
- IC50 [2]: 5.01 µM
Structure (SMILES): CCN(CC)CCN(CCNC[C@H](O)c1ccc(O)c2[nH]c(=O)sc12)C(=O)CCOCCc1ccccc1 [Example 7, N-[2-(Diethylamino)ethyl]-N-(2-{[(2R)-2-hydroxy-2-(4-hydroxy-2-oxo-2,3-dihydro-1,3-benzothiazol-7-yl)ethyl]amino}ethyl)-3-(2-phenylethoxy)propanamide]
